Laboratory results: patent publication US12129276B2, “Oxysterols and methods of use thereof” (SAGE THERAPEUTICS, INC., priority 2014, dated 2024)

Columns and labels:
[1] = target: T1, NMDA receptor (GRIN1/GRIN2A subunits) expressed in HEK cells (Homo sapiens, UniProt Q05586+Q12879); assay: Whole-cell patch clamp of mammalian cells, NMDA potentiation; assay type: cell-based; parameters: key: “A” indicates >5 to 50%; B: >50%; C indicates not active in the assay; settings: 1 μM test article, 30 μM NMDA and 5.0 μM glycine, holding potential −80 mV
T1 construct: expressed in transfected cells
T1 sequence (Q12879 23-1464, other chains not shown): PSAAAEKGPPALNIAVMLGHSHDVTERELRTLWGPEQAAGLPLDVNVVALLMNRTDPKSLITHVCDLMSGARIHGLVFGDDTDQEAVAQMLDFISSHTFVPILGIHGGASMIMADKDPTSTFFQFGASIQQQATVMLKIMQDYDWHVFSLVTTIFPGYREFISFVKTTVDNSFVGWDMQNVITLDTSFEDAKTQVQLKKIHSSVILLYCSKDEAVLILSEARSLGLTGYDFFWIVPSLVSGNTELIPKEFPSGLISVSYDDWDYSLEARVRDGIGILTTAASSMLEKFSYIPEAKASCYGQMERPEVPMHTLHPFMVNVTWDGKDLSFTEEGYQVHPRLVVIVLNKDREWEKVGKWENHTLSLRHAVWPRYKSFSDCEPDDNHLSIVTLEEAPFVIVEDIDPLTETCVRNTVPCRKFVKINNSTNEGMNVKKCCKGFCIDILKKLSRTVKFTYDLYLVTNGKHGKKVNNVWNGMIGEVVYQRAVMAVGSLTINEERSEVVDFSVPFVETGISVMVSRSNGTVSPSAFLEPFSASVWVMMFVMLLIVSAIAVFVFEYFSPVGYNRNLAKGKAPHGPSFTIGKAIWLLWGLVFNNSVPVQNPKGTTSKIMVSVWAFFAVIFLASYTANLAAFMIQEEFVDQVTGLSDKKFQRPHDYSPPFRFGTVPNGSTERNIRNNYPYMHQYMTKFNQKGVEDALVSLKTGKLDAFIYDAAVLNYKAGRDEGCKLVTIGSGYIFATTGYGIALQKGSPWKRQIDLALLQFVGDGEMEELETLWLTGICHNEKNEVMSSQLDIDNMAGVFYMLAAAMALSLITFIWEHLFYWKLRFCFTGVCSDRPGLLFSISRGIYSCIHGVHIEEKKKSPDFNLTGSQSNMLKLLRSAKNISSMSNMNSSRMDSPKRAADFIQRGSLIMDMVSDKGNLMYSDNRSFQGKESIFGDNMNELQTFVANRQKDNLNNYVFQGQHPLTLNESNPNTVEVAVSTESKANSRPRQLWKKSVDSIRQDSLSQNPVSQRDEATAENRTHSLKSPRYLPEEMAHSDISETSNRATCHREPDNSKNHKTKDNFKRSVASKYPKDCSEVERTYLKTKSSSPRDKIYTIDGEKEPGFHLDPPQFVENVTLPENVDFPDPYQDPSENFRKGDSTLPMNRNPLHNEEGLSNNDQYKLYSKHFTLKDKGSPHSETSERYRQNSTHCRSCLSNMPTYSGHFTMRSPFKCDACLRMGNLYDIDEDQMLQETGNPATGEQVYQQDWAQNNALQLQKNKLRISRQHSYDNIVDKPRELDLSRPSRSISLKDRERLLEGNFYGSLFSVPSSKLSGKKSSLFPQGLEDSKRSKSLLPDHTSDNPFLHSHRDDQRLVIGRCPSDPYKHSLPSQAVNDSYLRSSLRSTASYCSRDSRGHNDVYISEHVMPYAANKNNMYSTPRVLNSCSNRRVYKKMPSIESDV
Experimental: NMDA potentiation was assessed using either whole cell patch clamp of mammalian cells which expressed NMDA receptors, or using two-electrode voltage clamp (TEVC) of Xenopus laevis oocytes expressing NMDA receptors.
The whole-cell patch-clamp technique was used to investigate the effects of compounds on the NMDA receptor (GRIN1/GRIN2A subunits) expressed in HEK cells. NMDA/Glycine peak and steady-state currents were recorded from stably transfected cells expressing the NMDA receptor and the modulatory effects of the test items on these currents were investigated.
Cells were stably transfected with human GRIN1 (variant NR1-3). These cells were transiently transfected (Lipofectamine™) with GRIN2A cDNA and CD8 (pLeu) antigene cDNA. About 24-72 hours following transfection 1 μl Dynabeads M-45 CD8 was added to identify successfully transfected cells (Jurman et al., Biotechniques (1994) 17:876-881). Cells were passaged to a confluence of 50-80%. Cells were seeded onto Poly-L-Lysine coated cover slips covered with culture complete medium in a 35 mm culture dish. Confluent clusters of cells are electrically coupled (Pritchett et al., Science (1988), 242:1306-8). Because responses in distant cells are not adequately voltage clamped and because of uncertainties about the extent of coupling (Verdoorn et al., Neuron (1990), 4:919-28), cells were cultivated at a density that enables single cells (without visible connections to neighboring cells) to be measured. Cells were incubated at 37° C. in a humidified atmosphere with 5% CO2 (rel. humidity about 95%). The cells were continuously maintained in and passaged in sterile culture flasks containing a 1:1 mixture of Dulbecco's modified eagle medium and nutrient mixture F-12 (D-MEM/F-12 1×, liquid, with L-Glutamine) supplemented with 9% fetal bovine serum and 0.9% Penicillin/Streptomycin solution. The complete medium was supplemented with 3.0 μg/ml Puromycin.
Whole cell currents were measured with HEKA EPC-10 amplifiers using PatchMaster software. Cell culture dishes for recordings were placed on the dish holder of the microscope and continuously perfused (1 ml/min) with “bath solution” (NaCl 137 mM, KCl 4 mM, CaCl2) 1.8 mM, MgCl2 1 mM, HEPES 10 mM, D-Glucose 10 mM, pH (NaOH) 7.4). All solutions applied to cells including the pipette solution were maintained at room temperature (19° C.-30° C.). After formation of a Gigaohm seal between the patch electrodes and transfected individual HEK 293 cells (pipette resistance range: 2.5 MΩ-6.0 MΩ; seal resistance range: >1 GQ) the cell membrane across the pipette tip was ruptured to assure electrical access to the cell interior (whole-cell patch-configuration). At this point the bath solution is switched to “NMDA bath solution” (NaCl 137 mM, KCl 4 mM, CaCl2) 2.8 mM, HEPES 10 mM, D-Glucose 10 mM, Cremophore 0.02%, pH (NaOH) 7.4). NMDA inward currents were measured upon application of 30 μM NMDA (and 5.0 μM Glycine) to patch-clamped cells (2 applications) for 5 s. The cells were voltage clamped at a holding potential of −80 mV. For the analysis of test articles, NMDA receptors were stimulated by 30 μM NMDA and 5.0 μM Glycine after sequential pre-incubation of increasing concentrations of the test article. Pre-incubation duration was 30 s. Stimulation duration was 5 s Test articles were dissolved in DMSO to form stock solutions of 0.1 mM and 1 mM. Test articles were diluted to 0.1 μM and 1 μM in “NMDA bath solution”. Both concentrations of test articles were tested on each cell. […]

[2] = target: T2, NR1/NR2A glutamate receptors expressed in mammalian cells (Homo sapiens, UniProt Q05586+Q12879); assay: Whole-cell patch clamp of mammalian cells (IWB, Ion Works Barracuda); assay type: cell-based; settings: 3 μM test article, co-application with EC20 L-glutamate and 30 μM glycine
T2 construct: expressed in transfected cells
T2 sequence (Q12879 23-1464, other chains not shown): as above
Experimental: The whole-cell patch-clamp technique was used to investigate the effects of compounds on NR1/NR2A glutamate receptors expressed in mammalian cells.
Test article effects were evaluated in 8-point concentration-response format (4 replicate wells/concentration). All test and control solutions contained 0.3% DMSO and 0.01% Kolliphor® EL (C5135, Sigma). The test article formulations were loaded in a 384-well compound plate using an automated liquid handling system (SciClone ALH3000, Caliper LifeScienses). The measurements were performed using Ion Works Barracuda platform following this procedure: Electrophysiological Procedures: • a) Intracellular solution (mM): 50 mM CsCl, 90 mM CsF, 2 mM MgCl2, 5 mM EGTA, 10 mM HEPES. Adjust to pH 7.2 with CsOH. • b) Extracellular solution, HB-PS (composition in mM): NaCl, 137; KCl, 1.0; CaCl2, 5; HEPES, 10; Glucose, 10; pH adjusted to 7.4 with NaOH (refrigerated until use). • c) Holding potential: −70 mV, potential during agonist/PAM application: −40 mV. Recording Procedure: • a) Extracellular buffer will be loaded into the PPC plate wells (11 μL per well). Cell suspension will be pipetted into the wells (9 μL per well) of the PPC planar electrode. • b) Whole-cell recording configuration will be established via patch perforation with membrane currents recorded by on-board patch clamp amplifiers. • c) Two recordings (scans) will be performed. First, during pre-application of PAM alone (duration of pre-application—5 min) and second, during test articles and agonist (EC20 L-glutamate and 30 μM glycine) co-application to detect positive modulatory effects of the test article.
Test Article Administration: The first pre-application will consist of the addition of 20 μL of 2× concentrated test article solution and, second, of 20 μL of 1× concentrated test article and agonist at 10 μL/s (2 second total application time).

SMILES	NMDA 1a2A (%) Potentiation 1 μM [1]	GluN2A PCA IWB Ephys % potentiation at 3 μM [2]
C[C@H](CCC(C)(C)O)[C@H]1CC[C@H]2[C@@H]3CC=C4C[C@@H](O)CC[C@]4(CO)[C@H]3CC[C@]12C	A (“A” indicates >5 to 50%)	
COC[C@]12CC[C@](C)(O)CC1=CC[C@@H]1[C@@H]2CC[C@]2(C)[C@@H]([C@H](C)CCCO)CC[C@@H]12	A (“A” indicates >5 to 50%)	
COC[C@]12CC[C@](C)(O)C[C@@H]1CC[C@H]1[C@@H]3CC[C@H]([C@H](C)CCCO)[C@@]3(C)CC[C@@H]12	C	
COC[C@]12CC[C@](C)(O)C[C@@H]1CC[C@H]1[C@@H]3CC[C@H]([C@H](C)CCC(O)C(F)(F)F)[C@@]3(C)CC[C@@H]12 (stereo partly shown)		B (“B” indicates potentiation of >150%)
COC[C@]12CC[C@](C)(O)CC1=CC[C@@H]1[C@@H]2CC[C@]2(C)[C@@H]([C@H](C)CCC(O)C(F)(F)F)CC[C@@H]12 (stereo partly shown)		A (“A” indicates 10 to 150%)
CCC(O)(CC)CC[C@@H](C)[C@H]1CC[C@H]2[C@@H]3CC=C4C[C@@](C)(O)CC[C@]4(COC)[C@H]3CC[C@]12C		A (“A” indicates 10 to 150%)
COC[C@]12CC[C@](C)(O)CC1=CC[C@@H]1[C@@H]2CC[C@]2(C)[C@@H]([C@H](C)CCC(C)(C)O)CC[C@@H]12 [drawing 25]	A (“A” indicates >5 to 50%)	
COC[C@]12CC[C@](C)(O)C[C@@H]1CC[C@H]1[C@@H]3CC[C@H]([C@H](C)CCC(C)(C)O)[C@@]3(C)CC[C@@H]12 [drawing 26]	B (B: >50%)	
COC[C@]12CC[C@](C)(O)CC1=CC[C@@H]1[C@@H]2CC[C@]2(C)[C@@H]([C@H](C)CCC(C)(C)O)CC[C@@H]12 [drawing 28]		A (“A” indicates 10 to 150%)
COC[C@]12CC[C@](C)(O)C[C@@H]1CC[C@H]1[C@@H]3CC[C@H]([C@H](C)CCC(C)(C)O)[C@@]3(C)CC[C@@H]12 [drawing 32]		A (“A” indicates 10 to 150%)
